Laboratory results as given in patent US8173689B2 (Novartis AG, priority 2006, dated 2012).
Like-named read-outs stand apart in the source and are kept apart here.

Key:
kinase domain of PDGFRβ = target: T1, kinase domain of PDGFRβ (Homo sapiens, UniProt P09619); assay: Inhibition of PDGFRb kinase signaling in an in vitro biochemical assay (alphascreen); settings: tested at about 1 μM, read-out: PDGFRβ percent inhibition
T1 construct: The kinase domain of PDGFRβ was assayed in 50 mM Hepes; purchased Invitrogen P3082

kinase domain of cKIT = target: T2, kinase domain of cKIT (Homo sapiens, UniProt P10721); assay: Inhibition of cKIT kinase signaling in an in vitro biochemical assay (alphascreen); settings: tested at about 1 μM, read-out: cKit percent inhibition
T2 construct: The kinase domain of cKIT was assayed in 50 mM Hepes; purchased Upstate 14-559

[1] = target: T3, full-length human CSF-1R receptor (Homo sapiens, UniProt P07333); assay: In vitro inhibition of CSF-1R receptor tyrosine phosphorylation in transfected HEK293H cells stimulated with MCSF; type: cell-based; settings: HEK293-H, tested at about 1 μM, read-out: pCSF1R percent inhibition
T3 construct: transfected with the full-length human CSF-1R receptor cloned in house; expressed in transfected cells; host or cells: HEK293H (Invitrogen Cat. #11631017)
Method: The lysate was then transferred to total CSF-1R antibody coated 96-well plates that had already been blocked with 3% Blocker A from Mesoscale discovery (MSD) for 2 hours and washed afterwards. Lysates were incubated overnight at 4° C. and the plates were then washed 4× with MSD Tris Wash Buffer. […] The plates were read on the Sector 6000 instrument (MSD). Raw data was imported in Abase and EC50s calculated with XL-fit data analysis software.

[2] = test system: MNFS60 (murine AML cells); assay: Cell viability assay in MCSF dependent MNFS60 cells (Cell Titer Glo); type: cell-based; settings: Mus musculus, tested at about 1 μM, read-out: M-NFS-60 CP percent inhibition
Summary of the method: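 3-fold DMSO dilution series (500× stocks); MCSF 10 ng/ml final; 72 hrs, 37° C., 5% CO2; CellTiter-Glo read-out; n=3; EC50 fitted.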

[3] = target: T4, cytoplasmic domain of the human CSF-1R (Homo sapiens, UniProt P07333); assay: In vitro kinase assay for colony stimulating factor-1 receptor (AlphaScreen); type: biochemical; settings: tested at about 1 μM, read-out: CSF-1R percent inhibition
T4 construct: Recombinant protein corresponding to the cytoplasmic domain of the human CSF-1R; purchased Invitrogen Corporation, Carlsbad, Calif; PV3249
T4 sequence (P07333 539-972 limits assumed): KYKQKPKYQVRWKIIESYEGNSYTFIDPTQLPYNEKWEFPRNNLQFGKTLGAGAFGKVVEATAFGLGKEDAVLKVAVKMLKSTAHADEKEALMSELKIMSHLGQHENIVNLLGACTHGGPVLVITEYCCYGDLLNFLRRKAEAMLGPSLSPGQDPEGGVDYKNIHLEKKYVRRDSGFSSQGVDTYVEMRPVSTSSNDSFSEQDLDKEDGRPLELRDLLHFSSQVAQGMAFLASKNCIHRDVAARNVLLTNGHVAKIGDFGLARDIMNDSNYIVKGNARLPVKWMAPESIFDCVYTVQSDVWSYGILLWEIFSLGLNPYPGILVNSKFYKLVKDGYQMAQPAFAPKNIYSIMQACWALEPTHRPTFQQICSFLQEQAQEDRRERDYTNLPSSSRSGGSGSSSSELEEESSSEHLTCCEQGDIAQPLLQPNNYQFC
Summary of the method: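 At a low ATP level of 1 μM, phosphate transfer by the cytoplasmic-domain kinase (4 nM) was quantified with an AlphaScreen anti-phosphotyrosine bead pair.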

T1 sequence (P09619 600-962 limits assumed): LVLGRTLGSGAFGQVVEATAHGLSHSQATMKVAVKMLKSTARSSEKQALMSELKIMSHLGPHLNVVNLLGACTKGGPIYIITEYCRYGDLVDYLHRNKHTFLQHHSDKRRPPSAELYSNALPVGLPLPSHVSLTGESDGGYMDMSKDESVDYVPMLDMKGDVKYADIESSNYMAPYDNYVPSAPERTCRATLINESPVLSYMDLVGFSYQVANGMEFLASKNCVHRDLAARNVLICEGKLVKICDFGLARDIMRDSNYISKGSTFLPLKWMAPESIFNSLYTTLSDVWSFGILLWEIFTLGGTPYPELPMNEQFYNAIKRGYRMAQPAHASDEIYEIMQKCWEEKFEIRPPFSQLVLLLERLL
T3 sequence (P07333 20-972): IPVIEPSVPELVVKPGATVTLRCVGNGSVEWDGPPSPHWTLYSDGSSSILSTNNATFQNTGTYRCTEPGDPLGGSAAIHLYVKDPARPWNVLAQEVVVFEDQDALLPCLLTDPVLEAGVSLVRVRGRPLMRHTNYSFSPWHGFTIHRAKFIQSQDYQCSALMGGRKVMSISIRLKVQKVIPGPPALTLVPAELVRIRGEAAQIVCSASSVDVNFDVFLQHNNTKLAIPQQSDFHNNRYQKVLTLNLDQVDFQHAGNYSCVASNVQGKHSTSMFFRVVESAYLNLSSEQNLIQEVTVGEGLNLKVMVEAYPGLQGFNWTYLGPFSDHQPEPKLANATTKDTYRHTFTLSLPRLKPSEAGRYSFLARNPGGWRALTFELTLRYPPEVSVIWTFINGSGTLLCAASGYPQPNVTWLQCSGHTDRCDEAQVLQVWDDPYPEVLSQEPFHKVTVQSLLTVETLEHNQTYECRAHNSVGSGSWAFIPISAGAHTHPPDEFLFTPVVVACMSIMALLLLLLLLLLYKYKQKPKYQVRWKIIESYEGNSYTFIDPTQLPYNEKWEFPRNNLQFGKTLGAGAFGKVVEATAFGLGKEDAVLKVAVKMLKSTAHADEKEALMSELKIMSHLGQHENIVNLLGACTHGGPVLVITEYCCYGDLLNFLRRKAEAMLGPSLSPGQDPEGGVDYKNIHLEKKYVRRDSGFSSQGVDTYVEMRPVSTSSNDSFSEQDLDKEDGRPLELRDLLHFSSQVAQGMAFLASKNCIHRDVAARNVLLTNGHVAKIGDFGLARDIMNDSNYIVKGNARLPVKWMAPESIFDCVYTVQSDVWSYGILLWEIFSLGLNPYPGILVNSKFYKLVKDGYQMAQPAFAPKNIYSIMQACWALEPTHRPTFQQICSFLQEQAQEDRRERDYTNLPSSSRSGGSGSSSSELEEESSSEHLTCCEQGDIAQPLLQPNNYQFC
T2 sequence (P10721 589-937 limits assumed): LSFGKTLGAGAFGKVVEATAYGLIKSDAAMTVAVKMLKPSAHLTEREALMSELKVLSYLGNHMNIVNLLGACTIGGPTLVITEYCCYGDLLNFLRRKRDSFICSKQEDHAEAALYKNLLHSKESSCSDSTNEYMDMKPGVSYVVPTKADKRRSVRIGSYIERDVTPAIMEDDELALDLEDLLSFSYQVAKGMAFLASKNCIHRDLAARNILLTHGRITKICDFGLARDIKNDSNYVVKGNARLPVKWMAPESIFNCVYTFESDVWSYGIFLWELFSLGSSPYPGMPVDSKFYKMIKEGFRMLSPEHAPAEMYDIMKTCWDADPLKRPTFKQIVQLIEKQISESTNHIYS

Structure (SMILES)	inhibition at 1 µM (kinase domain of PDGFRβ; compounds of Table 3)	inhibition at 1 µM (kinase domain of cKIT; compounds of Table 3)	inhibition at 1 µM ([1]; compounds of Table 3)	inhibition at 1 µM ([3]; compounds of Table 3)	inhibition at 1 µM (kinase domain of PDGFRβ)	inhibition at 1 µM (kinase domain of cKIT)	inhibition at 1 µM ([1]; HEK293H cells)	inhibition at 1 µM [3]	inhibition at 1 µM ([2]; compounds of Table 3)	inhibition at 1 µM ([2]; MCSF dependent MNFS60 cells)	other results
CNC(=O)c1cc(Oc2ccc3nc(NCc4ccc(Cl)cc4Cl)sc3c2)ccn1 [Compound 130, 4-[2-(2,4-Dichloro-benzylamino)-benzothiazol-6-yloxy]-pyridine-2-carboxylic acid methylamide]					25%	87%	85%	99%			inhibition at 1 µM ([2]; MNFS60 cells): 72%
Cc1cnc(-c2cc(Oc3ccc4nc(NCC5CCCCC5)oc4c3)ccn2)[nH]1 [Compound 109, Cyclohexylmethyl-{6-[2-(5-methyl-1H-imidazol-2-yl)-pyridin-4-yloxy]-benzooxazol-2-yl}-amine]					75%	53%	90%	100%			inhibition at 1 µM ([2]; MNFS60 cells): 81%
CCCn1cc(-c2cc(Oc3ccc4nc(N[C@@H](C)C5CCCCC5)sc4c3)ccn2)cn1 [Example 273, (S)-N-(1-cyclohexylethyl)-6-(2-(1-propyl-1H-pyrazol-4-yl)pyridin-4-yloxy)benzo[d]thiazol-2-amine]	14%	41%	88%	100%					95%		
Cc1nc(-c2cc(Oc3ccc4nc(N[C@@H](C)C5CCCCC5)sc4c3)ccn2)[nH]c1C [Example 269, (S)-N-(1-cyclohexylethyl)-6-(2-(4,5-dimethyl-1H-imidazol-2-yl)pyridin-4-yloxy)benzo[d]thiazol-2-amine]	13%	18%	85%	100%					75%		
CNC(=O)c1cc(Oc2ccc3nc(NCC4CCCN(S(C)(=O)=O)C4)sc3c2)ccn1 (centres unmarked) [Example 308, N-methyl-4-(2-((1-(methylsulfonyl)piperidin-3-yl)methylamino)benzo[d]thiazol-6-yloxy)picolinamide]					27%	51%	81%	100%		54%	
CC(C)CCNc1nc2ccc(Oc3ccnc(-c4cnn(C)c4)c3)cc2s1 [Example 365, N-isopentyl-6-(2-(1-methyl-1H-pyrazol-4-yl)pyridin-4-yloxy)benzo[d]thiazol-2-amine]					79%	100%	97%	100%		100%	
CNC(=O)c1cc(Oc2ccc3nc(NCc4ccccc4OC)oc3c2)ccn1 [Compound 17, 4-[2-(2-Methoxy-benzylamino)-benzooxazol-6-yloxy]-pyridine-2-carboxylic acid methylamide]					10%	85%	94%	100%			inhibition at 1 µM ([2]; MNFS60 cells): 81%
O[C@H]1Cc2ccccc2[C@H]1Nc1nc2ccc(Oc3ccnc4ccccc34)cc2s1 [Example 237, (1R,2S)-1-(6-(quinolin-4-yloxy)benzo[d]thiazol-2-ylamino)-2,3-dihydro-1H-inden-2-ol]	13%	24%	94%	100%					100%		

Continued, in another order:

inhibition at 1 µM (kinase domain of PDGFRβ; compounds of Table 3)	inhibition at 1 µM (kinase domain of cKIT; compounds of Table 3)	inhibition at 1 µM ([1]; compounds of Table 3)	inhibition at 1 µM ([3]; compounds of Table 3)	inhibition at 1 µM (kinase domain of PDGFRβ)	inhibition at 1 µM (kinase domain of cKIT)	inhibition at 1 µM ([1]; HEK293H cells)	inhibition at 1 µM [3]	Structure (SMILES)	inhibition at 1 µM ([2]; compounds of Table 3)	inhibition at 1 µM ([2]; MCSF dependent MNFS60 cells)	other results
69%	52%	68%	100%					N#Cc1ccc2c(Oc3ccc4nc(N[C@@H]5CCCC[C@H]5O)sc4c3)ccnc2c1 [Example 222, 4-(2-((1R,2R)-2-hydroxycyclohexylamino)benzo[d]thiazol-6-yloxy)quinoline-7-carbonitrile]	91%		
43%	40%	99%	100%					O[C@@H]1CCCC[C@H]1Nc1nc2ccc(Oc3ccnc(-c4ccc(CN5CCOCC5)cc4)c3)cc2s1 [Cmpd 168, (1R,2R)-2-(6-(2-(4-(morpholinomethyl)phenyl)pyridin-4-yloxy)benzo[d]thiazol-2-ylamino)cyclohexanol]	100%		
57%	32%	95%	100%					CNC(=O)c1cc(Oc2ccc3nc(N[C@@H]4CCCC[C@H]4CO)sc3c2)ccn1 [Example 299, 4-(2-((1R,2R)-2-(hydroxymethyl)cyclohexyl-amino)benzo[d]thiazol-6-yloxy)-N-methylpicolinamide]	94%		
				7%	44%	81%	65%	CNC(=O)c1cc(Oc2ccc3nc(N[C@@H]4CCCC[C@H]4NS(C)(=O)=O)sc3c2)ccn1 [Example 326, N-methyl-4-(2-((1R,2R)-2-(methylsulfonamido)cyclo-hexylamino)benzo[d]thiazol-6-yloxy)picolinamide]		33%	
				19%	31%	93%	100%	CC(C)Cn1cc(-c2cc(Oc3ccc4nc(N[C@@H]5CCCC[C@H]5O)sc4c3)ccn2)cn1 [Example 359, (1R,2R)-2-(6-(2-(1-isobutyl-1H-pyrazol-4-yl)pyridin-4-yloxy)benzo[d]thiazol-2-ylamino)cyclohexanol]		95%	
4%	0%	83%	100%	12%			13%	CNC(=O)c1cc(Oc2ccc3nc(Nc4ccccc4-n4ccnc4C)oc3c2)ccn1 [Compound 47, 4-{2-[2-(2-Methyl-imidazol-1-yl)-phenylamino]-benzooxazol-6-yloxy}-pyridine-2-carboxylic acid methylamide]	55%		inhibition at 1 µM (kinase domain of PDGFRβ; compounds of Table 4): 31%; inhibition at 1 µM (kinase domain of cKIT; compounds of Table 4): 55%; inhibition at 1 µM ([1]; compounds of Table 4): 79%; inhibition at 1 µM ([2]; compounds of Table 4): 58%; inhibition at 1 µM ([3]; compounds of Table 4): 100%
				15%	20%	71%	100%	CNC(=O)c1cc(Oc2ccc3nc(N[C@H]4CCCN(C(=O)C(C)C)C4)sc3c2)ccn1 [Example 334, (S)-4-(2-(1-isobutyrylpiperidin-3-ylamino)benzo[d]thiazol-6-yloxy)-N-methylpicolinamide]		67%	
18%	22%	97%	100%					O[C@@H]1CCCC[C@H]1Nc1nc2ccc(Oc3ccnc(-c4ccnc(N5CCOCC5)c4F)c3)cc2s1 [Cmpd 172, (1R,2R)-2-(6-(3'-fluoro-2'-morpholino-2,4'-bipyridin-4-yloxy)benzo[d]thiazol-2-ylamino)cyclohexanol]	100%		
				13%	47%	78%	100%	CNC(=O)c1cc(Oc2ccc3nc(N[C@H]4C[C@H]4c4ccccc4)sc3c2)ccn1 [Example 318, N-methyl-4-(2-((1S,2S)-2-phenylcyclopropylamino)benzo[d]thiazol-6-yloxy)picolinamide]		24%	
